Assay results as given in the supplement of paper PMC13380429.

How the values were obtained:
Details in all cases: 72 h
[1] = tested on: Calu-3; experiment: cell viability relative to DMSO; higher = less toxic
[2] = tested on: U2OS; experiment: as above
[3] = tested on: Caco-2; experiment: as above
[4] = tested on: Vero E6; experiment: as above
[5] = tested on: Calu-3; experiment: relative viability EC50 (midpoint between 100% and the lowest measured viability); higher = less toxic
[6] = tested on: U2OS; experiment: as above
[7] = tested on: Caco-2; experiment: as above
[8] = tested on: Vero E6; experiment: as above
[9] = tested on: Calu-3; experiment: drug sensitivity score (DSS) for viability; higher = more toxic; extreme values may be limits of the assay
[10] = tested on: U2OS; experiment: as above
[11] = tested on: Caco-2; experiment: as above
[12] = tested on: Vero E6; experiment: as above
[13] = tested on: HepG2; experiment: cell viability relative to DMSO; higher = less toxic
[14] = tested on: HepG2; experiment: drug sensitivity score (DSS) for viability; higher = more toxic; extreme values may be limits of the assay

Row | SMILES | cell viability ([1]; 1 nM) [%] | cell viability ([1]; 10 nM) [%] | cell viability ([1]; 100 nM) [%] | cell viability ([1]; 1000 nM) [%] | cell viability ([1]; 10000 nM) [%] | cell viability ([2]; 1 nM) [%] | cell viability ([2]; 10 nM) [%] | cell viability ([2]; 100 nM) [%] | cell viability ([2]; 1000 nM) [%] | cell viability ([2]; 10000 nM) [%] | cell viability ([3]; 1 nM) [%] | cell viability ([3]; 10 nM) [%] | cell viability ([3]; 100 nM) [%] | cell viability ([3]; 1000 nM) [%] | cell viability ([3]; 10000 nM) [%] | cell viability ([4]; 1 nM) [%] | cell viability ([4]; 10 nM) [%] | cell viability ([4]; 100 nM) [%] | cell viability ([4]; 1000 nM) [%] | cell viability ([4]; 10000 nM) [%] | relative viability EC50 [5] [µM] | relative viability EC50 [6] [µM] | relative viability EC50 [7] [µM] | relative viability EC50 [8] [µM] | drug sensitivity score [9] | drug sensitivity score [10] | drug sensitivity score [11] | drug sensitivity score [12] | cell viability ([13]; 1 nM) [%] | cell viability ([13]; 10 nM) [%] | cell viability ([13]; 100 nM) [%] | cell viability ([13]; 1000 nM) [%] | cell viability ([13]; 10000 nM) [%] | drug sensitivity score [14]
1 | Clc1cccc(Cl)c1NC1=NCCN1 [clonidine] | 98.4 | 87.9 | 90.4 | 87 | 88.8 | 103 | 103 | 95.9 | 101 | 98.5 | 95.3 | 95.6 | 96.1 | 84.1 | 94 | 95.6 | 101 | 102 | 99.3 | 95.2 | > 10 | > 10 | > 10 | > 10 | 2.3 | 0 | 0 | 0 | – | – | – | – | – | –
2 | N#C/C(=C\c1ccc(O)c(O)c1)C(=O)Nc1ccccc1 [tyrphostin-AG-494] | 93.5 | 102 | 95.1 | 101 | 107 | 105 | 102 | 99.2 | 97.3 | 93.1 | 110 | 99.8 | 104 | 95.7 | 88.3 | 104 | 100 | 104 | 105 | 90.6 | > 10 | > 10 | > 10 | > 10 | 0 | 0 | 0.2 | 0 | 101 | 102 | 98.6 | 110 | 54.6 | 1.8
3 | CO[C@@H]1[C@@H](OC(N)=O)[C@@H](O)[C@H](Oc2ccc3c(O)c(NC(=O)c4ccc(O)c(CC=C(C)C)c4)c(=O)oc3c2C)OC1(C)C [novobiocin] | 98.1 | 101 | 98.8 | 93.6 | 81.2 | – | – | – | – | – | 124 | 92.9 | 109 | 108 | 112 | – | – | – | – | – | > 10 | – | > 10 | – | 1.1 | – | 0 | – | – | – | – | – | – | –
4 | FC(F)OC(F)(F)C(F)Cl (configuration not stated) [enflurane] | 85.1 | 94.2 | 85.6 | 101 | 103 | – | – | – | – | – | 96.9 | 104 | 98.3 | 103 | 107 | 94.7 | 103 | 98.4 | 104 | 103 | > 10 | – | > 10 | > 10 | 0 | – | 0 | 0 | – | – | – | – | – | –
5 | CCC(=O)O[C@H](CC(=O)O)C[N+](C)(C)C [levocarnitine-propionate] | 87.9 | 108 | 97.9 | 100 | 85.8 | – | – | – | – | – | 94.7 | 103 | 98.7 | 108 | 98.5 | 106 | 105 | 99.2 | 100 | 104 | > 10 | – | > 10 | > 10 | 0.2 | – | 0 | 0 | – | – | – | – | – | –
6 | CCc1cccc(CC)c1NC1=NCCN1 [ST-91] | 104 | 90.2 | 96.6 | 89.6 | 115 | 103 | 98.7 | 104 | 94.8 | 99 | 102 | 101 | 96.2 | 93.4 | 100 | 98.9 | 97.1 | 102 | 98.3 | 93.5 | > 10 | > 10 | > 10 | > 10 | 0 | 0 | 0 | 0 | – | – | – | – | – | –
7 | CC(C)(C)NCC(O)c1cc(Cl)c(N)c(Cl)c1 (configuration not stated) [clenbuterol] | 108 | 85.1 | 100 | 93.7 | 97.4 | 97.6 | 95 | 105 | 98.2 | 96.9 | 93.7 | 89.9 | 103 | 90.8 | 117 | 95.3 | 101 | 97.8 | 104 | 112 | > 10 | > 10 | > 10 | > 10 | 0 | 0 | 0 | 0 | – | – | – | – | – | –
8 | CC(=O)[C@@]12O[C@](C)(c3ccccc3)O[C@@H]1C[C@H]1[C@@H]3CCC4=CC(=O)CC[C@]4(C)[C@H]3CC[C@@]12C [algestone-acetophenide] | 105 | 100 | 96.3 | 109 | 86.4 | 99.7 | 95.2 | 99.3 | 98.4 | 91.8 | 104 | 94.2 | 97.5 | 100 | 78.5 | 101 | 96.6 | 87.5 | 92.3 | 102 | > 10 | > 10 | > 10 | > 10 | 0 | 0 | 0.7 | 0 | 98.3 | 108 | 102 | 103 | 71.7 | 1
9 | Nc1ccc(S(=O)(=O)Nc2ccccn2)cc1 [sulfapyridine] | – | – | – | – | – | – | – | – | – | – | – | – | – | – | – | – | – | – | – | – | – | – | – | – | 0 | 0 | – | 0 | – | – | – | – | – | 0
